Reference: patent US11452708B2, “Discovery of potent [alpha]-glucosidase inhibitors from Heterophragma adenophyllum” (KING ABDULAZIZ UNIVERSITY, priority 2021, dated 2022)
“And” between values parts separate entries of the source, which are not always exact repeats. Identical values can stand only once. Like-named read-outs stand apart in the source and are kept apart here.

Biological target: α-glucosidase (E.C.3.2.1.20) (Saccharomyces cerevisiae, UniProt P53341)
Experiment: α-glucosidase inhibitory activity (p-nitrophenyl-α-d-glucopyranoside substrate, absorbance at 400 nm)
Type: biochemical
Details: in vitro; for IC50: 0.1 M phosphate buffer, pH 6.8, 37° C., standard acarbose, unit inferred
Experimental: . The substrate (0.7 Mm, p-nitrophenyl-α-d-glucopyranoside) was then mixed in and the difference in absorbance at 400 nm was recorded using a spectrophotometer for 30 minutes. The tested extracts and compound 1 were substituted with DMSO-d6 (7.5%) in the control. The standard drug used in this experiment was acarbose. The percentage activity was calculated by using the following formula.

[1] = read-out: IC50, α-glucosidase inhibition

Chain of α-glucosidase (E.C.3.2.1.20) (P53341 whole entry): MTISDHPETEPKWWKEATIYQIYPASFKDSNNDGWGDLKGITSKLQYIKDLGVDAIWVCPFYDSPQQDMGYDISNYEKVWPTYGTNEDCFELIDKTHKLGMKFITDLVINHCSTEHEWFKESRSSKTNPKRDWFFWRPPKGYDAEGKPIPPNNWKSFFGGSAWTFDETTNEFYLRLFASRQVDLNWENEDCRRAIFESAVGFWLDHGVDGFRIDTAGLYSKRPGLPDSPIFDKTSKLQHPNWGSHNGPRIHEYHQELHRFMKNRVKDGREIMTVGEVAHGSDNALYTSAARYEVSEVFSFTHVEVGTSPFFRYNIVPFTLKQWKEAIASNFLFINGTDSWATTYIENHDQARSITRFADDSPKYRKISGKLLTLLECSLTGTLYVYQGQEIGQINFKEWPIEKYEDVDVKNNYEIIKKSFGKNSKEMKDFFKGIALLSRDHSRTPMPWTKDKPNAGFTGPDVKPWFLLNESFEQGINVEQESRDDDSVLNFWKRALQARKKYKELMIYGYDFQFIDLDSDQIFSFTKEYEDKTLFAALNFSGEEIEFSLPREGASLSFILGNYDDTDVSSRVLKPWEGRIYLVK

| Compound | IC50 [1] | also measured |
| --- | --- | --- |
| COC(=O)C1(O)c2ccccc2C(=O)C1(O)CC=C(C)C (stereo not shown) [Compound 3, Methyl 1,2-dihydroxy-2-(3-methylbut-2-enyl)-3-oxo-2,3-dihydroxo-1H-indene-1-carboxylate] | – | IC50 (IC50, α-glucosidase inhibition): 78.3 µM and 117 µM |
| CC1(C)CCC2=C(O1)C(=O)c1ccccc1C2=O [Compound 4, α-lapachone] | 117 µM and 78.3 µM | – |
| peshawaraquinone [Compound 2] | – | α-glucosidase inhibitory activity (in words) (comparison among the tested compounds 1-4): least active |
| CC(C)=CCC1=C(O)C(=O)c2ccccc2C1=O [Compound 1, lapachol] | 33.1 ± 2.41 µM | – |
